Here are results for 3 compounds from PMC12508063, “Chloroindazole based estrogen receptor β ligands with favorable pharmacokinetics promote functional remyelination and visual recovery” (Scientific Reports, 2025).

The inhibition is the change of the read-out against control, counted positive when it falls. A high value points to a strong effect.

The nature of data set [1]: Stability in human plasma. In kind it is in vitro ADME.
Data set [2] relates to primary mouse OPCs. Nature of the data set: OL differentiation in primary mouse OPC culture (MBP, DAPI). In kind it is cell-based. The note with it: 10 nM and 100 nM, concentration-dependent.
Excerpt: Mouse and Human primary cell cultures: Primary OPC/OL culture were isolated from the cortices of postnatal day 0–1 C57BL/6J mice of both sexes, using established protocols[11],[20],[21]. Mouse OPC and Neuronal Co-cultures: Primary neuronal cultures were established in Neurobasal medium with B27 and plated on poly-L-lysine-coated coverslips. After 12 days, OPCs were isolated, counted, and added to neuronal cultures and media was replaced with neuronal and proliferation media for 3 days, then switched to maturation media that maintained both neurons and OLs. Human iPSC-derived OPCs (Tempo’s iOligo™) were expanded, cryopreserved, and later plated on Matrigel-coated coverslips. After 3 days in growth medium, cells were treated for 3 weeks with T3 containing maturation medium. Differentiation into myelin-producing OLs was assessed using O4 (OL surface marker on pre-OLs) and myelin basic protein (MBP) immunohistochemistry. In all conditions compounds or vehicle were added to culture during differentiation for either 5 days (mouse) or 18 days (human).
Immunocytochemistry and Image Analysis of cell cultures: After treatment, cells were fixed and stained for MBP and DAPI. Coverslips were imaged using a confocal microscope at 10× and 40× objectives. Cell densities were quantified using ImageJ and normalized to control conditions. MBP-positive cells, their process extensions, and highly branched OLs were counted to assess differentiation. Co-culture images were analyzed for MBP and β3-tubulin colocalization using JACoP[22] in ImageJ, with results validated by manual quantification.
Primary OL Progenitor cells (OPC) and Neuronal Cultures: OPC and cortical neuronal cultures were prepared from the cortices of postnatal day P0-P1 C57BL/6J mice of both sexes, following established protocols (1, 2);(3). The single-cell suspension was divided into two tubes. One tube was treated with warm Neuronal Basal media, counted, and plated onto poly-L-lysine (PLL)-coated glass coverslips. The second tube was resuspended in glial growth medium, composed of DMEM-F12 supplemented with 10% fetal bovine serum, and placed in a PLL-coated culture flask for 8–10 days until confluent. Primary OPCs were then isolated by shaking and either co-cultured with primary neurons or plated onto poly-D-lysine-coated glass coverslips (three coverslips per condition, 2x10^6 cells per coverslip). The OPCs were allowed to attach for three days, followed by five days in differentiating media (DMEM-F12 with Sato media containing triiodothyronine and thyroxine) supplemented with various analogues and remyelinating compounds. For comparison, a negative control (vehicle, consisting of the media and ethanol mixture used to dissolve the analogues and remyelinating compounds) and a normal control (differentiating media alone) were included in the experiments.
Quantification of Mature OLs and Co-culture axon myelination: At the conclusion of the treatment period, cells were fixed and subjected to immunocytochemistry to evaluate myelin basic protein (MBP) expression, co-stained with the nuclear marker DAPI (shown in blue). […] Cell counting was performed using the ImageJ multipoint tool, and cell densities were calculated by dividing the counts by the image area (mm²). […]
To assess OL differentiation, the number of MBP-positive (MBP+) cells and process extensions exceeding the diameter of the cell body were quantified.
Data set [3] deals with EAE mice. The data set is described as follows: EAE clinical disease score. In kind it is in vivo, C57BL/6J mouse. The note with it: 5 mg/kg/day SC from peak disease. Here is the method:
EAE induction and treatment: EAE was induced in 8–10-week-old wild-type C57BL/6J mice using MOG₃₅-₅₅ peptide[11],[14],[23]–[25]. Mice were scored daily using a standard clinical scale (0–5) and tested for their ability to stay on a rotarod. […] At peak disease (18–22 days post-immunization), animals were grouped into EAE+Vehicle, EAE+K102, and EAE+K110.
Fig. 3 Experimental design for treatment effects in EAE. (A) Experimental plan. […] Following emulsion injection, mice were injected with pertussis (PTX). Mice were scored for their clinical EAE score daily. EAE mice (red) show signs of disease starting at days 8–17. At peak disease between the days […], therapeutic treatment started and continued daily until the end of the experiment (D35-45). […] N = 6–8 mice/group. Two-Way unbalanced ANOVA with Dunnett’s multiple comparisons test was performed. […]
EAE induction and treatment: Eight to ten-week-old wild-type C57BL/6J mice were induced with active EAE using MOG35-55 peptide as previously described (1-5). […] Animals were scored daily for clinical EAE scores as follows: 0, unaffected; 1, complete tail limpness; 2, failure to right upon attempt to roll over; 3, partial hind limb paralysis; 4, complete hind limb paralysis; […]. At peak disease 18-22 dpi, mice were scored and separated into 3 groups: EAE+V, EAE+SHK-K102, and EAE+K110. […]

The conditions of data set [4]: hepatocytes.
For data set [5] the following is noted: hepatocytes, 0.25 h.
For data set [6] the following is noted: plasma.
For data set [7] the following is noted: plasma. This is another data set of the same source.
Data set [8] concerns the target CYP1A2 (Homo sapiens, UniProt P05177). Nature of the data set: in vitro.
The subject of data set [9] is multiple sclerosis patients. The note with it: oral estriol combined with glatiramer acetate (GA), Phase 2 trial; cited from earlier work.

Sequence of CYP1A2 (P05177 whole entry): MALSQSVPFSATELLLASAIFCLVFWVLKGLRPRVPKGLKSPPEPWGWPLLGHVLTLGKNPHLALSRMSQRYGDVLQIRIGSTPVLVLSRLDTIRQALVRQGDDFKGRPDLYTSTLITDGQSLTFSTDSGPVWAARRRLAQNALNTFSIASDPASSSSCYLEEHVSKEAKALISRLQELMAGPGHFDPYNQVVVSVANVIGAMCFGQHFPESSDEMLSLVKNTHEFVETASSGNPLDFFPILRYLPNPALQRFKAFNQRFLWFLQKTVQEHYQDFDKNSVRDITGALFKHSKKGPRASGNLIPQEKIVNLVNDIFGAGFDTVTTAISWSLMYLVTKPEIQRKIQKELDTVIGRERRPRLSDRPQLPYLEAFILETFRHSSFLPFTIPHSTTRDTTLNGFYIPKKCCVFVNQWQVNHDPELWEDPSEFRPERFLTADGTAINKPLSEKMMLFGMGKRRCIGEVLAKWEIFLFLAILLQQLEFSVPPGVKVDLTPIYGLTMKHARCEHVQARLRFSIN

For the compound `Oc1ccc(-n2nc3ccc(O)cc3c2Cl)cc1` [Compound K101, IndCl], the “% Remaining at 6 hr in Human Plasma” value in data set [1] came to 91.37%. Besides, in [2], the “number of MBP+ cells vs vehicle” value was “significantly increased”. For the same compound, the EAE clinical disease result in data set [3] is listed as “decrease in EAE clinical disease”. Further, in data set [4], the “Hepatocyte Stability (Human) CLint” value came out at 78.30 µL/min/mg protein. Besides, the “Hepatocyte Stability (Human) % Remaining (15 min)” value in [4] (0.25 h) is recorded as 57.83%. For the same compound, in data set [5], the “Hepatocyte Stability (Mouse) % Remaining (15 min)” value was 10.94%. Further, in data set [6], the “Protein Binding (% Bound) Mouse” value is 97.74%. Also, the “Protein Binding (% Bound) Human” value in [7] was found to be 98.05%.

In data set [8], `Cc1nc2c([nH]1)c(=O)n(C)c(=O)n2Cc1ccco1` [Furafylline] gave an inhibition at 10 µM of 91.7%.

For the compound `C[C@]12CC[C@@H]3c4ccc(O)cc4CC[C@H]3[C@@H]1C[C@@H](O)[C@@H]2O` [estriol], the “reduction in annualized relapse rate compared to placebo” value in data set [9] was 32%.
